Laboratory results taken from ChEMBL document CHEMBL1201862, “PubChem BioAssay data set” (2004).
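In this assay, cells in 96-well plates receive the compound at five concentrations for 48 hours. Endpoints are linearly interpolated between the surrounding concentrations. GI50 = concentration required for 50% inhibition of growth.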 The source made the active and inactive calls. Rule as the data show it: active = GI50 up to about 1.1 µM and inactive = higher.

Columns and labels:
Assay in all cases: DTP human tumour cell line panel, 48 h
HOP-92 = system: HOP-92
MDA-N = system: MDA-N
CCRF-CEM = system: CCRF-CEM
U-251 = system: U-251
MDA-MB-435 = system: MDA-MB-435
NCI-H522 = system: NCI-H522
HL-60 = system: HL-60
UACC-62 = system: UACC-62
MCF7 = system: MCF7
KM12 = system: KM12
NCI-H23 = system: NCI-H23
SF-295 = system: SF-295
M14 = system: M14
HCT-116 = system: HCT-116
A498 = system: A498
A549 = system: A549
HCT-15 = system: HCT-15
HT-29 = system: HT-29
Hs-578T = system: Hs-578T
SNB-19 = system: SNB-19
SK-MEL-28 = system: SK-MEL-28
NCI/ADR-RES = system: NCI/ADR-RES
IGROV-1 = system: IGROV-1
RPMI-8226 = system: RPMI-8226
LOX IMVI = system: LOX IMVI
SR = system: SR
EKVX = system: EKVX
PC-3 = system: PC-3
UACC-257 = system: UACC-257
MDA-MB-231 = system: MDA-MB-231
MOLT-4 = system: MOLT-4
OVCAR-5 = system: OVCAR-5
SW-620 = system: SW-620
SK-MEL-2 = system: SK-MEL-2
SNB-75 = system: SNB-75
UO-31 = system: UO-31
NCI-H460 = system: NCI-H460
CAKI-1 = system: CAKI-1
SK-OV-3 = system: SK-OV-3
SF-268 = system: SF-268
OVCAR-8 = system: OVCAR-8
K562 = system: K562
ACHN = system: ACHN
T47D = system: T47D
SK-MEL-5 = system: SK-MEL-5
786-0 = system: 786-0
Malme-3M = system: Malme-3M
BT-549 = system: BT-549
HOP-62 = system: HOP-62
SF-539 = system: SF-539
DU-145 = system: DU-145
COLO 205 = system: COLO 205
HCC 2998 = system: HCC 2998
NCI-H226 = system: NCI-H226
TK-10 = system: TK-10
OVCAR-3 = system: OVCAR-3
RXF 393 = system: RXF 393
SN12C = system: SN12C

Measured: GI50

CC1CN=C(Nc2ccc(F)c(Cl)c2)S1 (centres undefined)
83.4 µM: HCT-15
inactive: HOP-92 28.9 µM | MDA-N > 100 µM | CCRF-CEM 29.7 µM | U-251 95.3 µM | MDA-MB-435 > 100 µM | NCI-H522 58.2 µM | HL-60 29.9 µM | UACC-62 > 100 µM | MCF7 > 100 µM | KM12 > 100 µM | NCI-H23 51.5 µM | SF-295 > 100 µM | M14 > 100 µM | HCT-116 71 µM | A498 62.8 µM | A549 88.9 µM | HT-29 > 100 µM | Hs-578T > 100 µM | SNB-19 > 100 µM | SK-MEL-28 > 100 µM | NCI/ADR-RES 42.5 µM | IGROV-1 81.7 µM | RPMI-8226 39.3 µM | LOX IMVI 86.7 µM | SR 31.5 µM | EKVX 43.2 µM | PC-3 72.4 µM | UACC-257 86.5 µM | MDA-MB-231 > 100 µM | MOLT-4 > 10 µM | OVCAR-5 > 100 µM | SW-620 > 100 µM | SK-MEL-2 > 100 µM | SNB-75 > 100 µM | UO-31 29.8 µM | NCI-H460 > 100 µM | CAKI-1 53.6 µM | SK-OV-3 > 100 µM | SF-268 92.3 µM | OVCAR-8 > 100 µM | K562 62.1 µM | ACHN > 100 µM | T47D 88.9 µM | SK-MEL-5 58.5 µM | 786-0 > 100 µM | Malme-3M > 100 µM | BT-549 > 100 µM | HOP-62 > 100 µM | SF-539 > 100 µM | DU-145 > 100 µM | COLO 205 > 100 µM | HCC 2998 > 100 µM | NCI-H226 > 100 µM | TK-10 > 100 µM | OVCAR-3 > 100 µM | RXF 393 37.6 µM

COc1ccc(OC)c2sc(N3C(=O)/C(=C/c4cccc([N+](=O)[O-])c4)N=C3c3ccccc3)nc12
61.5 µM: HCT-15
inactive: HOP-92 94.2 µM | MDA-N 32.4 µM | CCRF-CEM 24.9 µM | U-251 32 µM | MDA-MB-435 23.9 µM | NCI-H522 42.6 µM | HL-60 20.8 µM | UACC-62 36.4 µM | MCF7 21.2 µM | KM12 42.2 µM | NCI-H23 86.7 µM | SF-295 51.8 µM | M14 > 100 µM | HCT-116 > 100 µM | A498 57.8 µM | A549 47.1 µM | HT-29 > 100 µM | Hs-578T 51.9 µM | SNB-19 > 100 µM | SK-MEL-28 76 µM | NCI/ADR-RES 56 µM | IGROV-1 43.4 µM | RPMI-8226 22.5 µM | LOX IMVI 23.1 µM | SR 23.7 µM | EKVX > 100 µM | PC-3 59.7 µM | UACC-257 38.3 µM | MDA-MB-231 > 100 µM | MOLT-4 21.8 µM | OVCAR-5 > 100 µM | SW-620 23.7 µM | SK-MEL-2 69 µM | SNB-75 42.7 µM | UO-31 > 100 µM | NCI-H460 77.1 µM | CAKI-1 > 100 µM | SK-OV-3 50.6 µM | SF-268 57.5 µM | OVCAR-8 28.5 µM | K562 23.3 µM | ACHN 99.8 µM | T47D 22.3 µM | SK-MEL-5 49.4 µM | 786-0 49.7 µM | Malme-3M > 100 µM | BT-549 48.5 µM | HOP-62 54.1 µM | SF-539 41.1 µM | DU-145 68.4 µM | COLO 205 > 100 µM | HCC 2998 45.5 µM | TK-10 74 µM | OVCAR-3 35.6 µM | SN12C > 100 µM | RXF 393 55.1 µM
